Measured values: patent publication US20230190689A1, “METHODS AND COMPOSITIONS FOR INDUCING BROWN ADIPOGENESIS” (ENERGESIS PHARMACEUTICALS, INC., priority 2020, published 2023)

Columns and labels:
DIO mice = assay: DIO mouse study of metabolic health, once-daily oral gavage for 28 to 56 days; assay type: in vivo, C57Bl/6 mice; conditions: oral gavage once a day, bezafibrate 60 mg/kg, oxaprozin 50 mg/kg, vs vehicle
Protocol: Obesity and insulin resistance, an early stage in the development of type 2 diabetes (or pre-diabetes), was induced in C57Bl/6 mice by feeding the mice with a high fat diet (Research diet, Cat #D12492, 60/a fat kcal) for 12 weeks starting at 6 weeks of age. The mice were maintained at 22-23° C. with abundant bedding material, maintaining the animals in an environmental temperature close to their thermoneutrality, starting 2 weeks prior to the dosing period and for the full dosing period with a 12 h/12 h light/dark cycle.
Mice were dosed once per day by oral gavage (200 μl per mouse), first for 3 days with the vehicle (PBS+0.5% CMC+0.1% Tween-80) as acclimation for running into the study, then with either vehicle alone or testing material dissolved in the vehicle for […] (4 to 8 weeks).
Body weight was recorded every 3 days, body composition (fat and lean mass with EchoMRI) was assessed at the end of the study (University of Cincinnati Mouse Metabolic Phenotyping Center), blood glucose level (measured with a glucometer) was monitored 3-5 days before (baseline) and at the end of the dosing period.
At the end of the dosing period, animals were fasted for 6 hours and euthanized by CO2, blood was collected, and plasma was isolated and saved at −20° C. Plasma glucose, insulin and leptin levels were assessed 3-5 days before (baseline) and at the end of the dosing period (mice were fasted for 6 hours before all plasma collection) (University of Cincinnati Mouse Metabolic Phenotyping Center). Insulin sensitivity was determined using the homeostasis model assessment of insulin resistance (HOMA-IR). HOMA-IR=(plasma insulin [microIU/ml] x plasma glucose [mM])/22.5.
The mice were maintained on a high fat diet (60% calories from fat) throughout the study. An overnight fast was performed the last night of the study in preparation for glucose tolerance testing.

[1] = system: CD34+ brown adipocyte progenitor cells; assay: Multiplexed TaqMan real-time PCR of UCP1 and PPARγ2 mRNA (normalized to cyclophilin A) to quantify differentiation of CD34+ cells into brown adipocytes; assay type: cell-based, human; conditions: for differentiation of brown adipocyte progenitor cells into brown adipocytes, as indicated by expression of UCP1 and PPARγ2: in vitro, first screen at 10 μM, actives retested at 1 nM to 50 μM
Excerpt: A robust method, previously disclosed, was used for detection of CD34+ cell differentiation into brown adipocytes by simultaneously quantifying mRNA species corresponding to the brown adipocyte marker UCP1, the adipocyte marker PPARγ2, and the “housekeeping” gene cyclophilin A which was used as the internal control.
This method permits analysis of a large number of samples to identify agents that enhance the differentiation of CD34+ cells into brown adipocytes. When differentiated into brown adipocytes, CD34+ cells express much higher levels of UCP1 and PPARγ2 mRNA for a given level of cyclophilin A. UCP1 and PPARγ2 mRNA levels normalized to cyclophilin A mRNA levels give an indication of the level of differentiation of the CD34+ cells into brown adipocytes, independent of the total number of cells in the sample.
Quantification of UCP1, PPARγ2 and cyclophilin A mRNA by multiplexed TaqMan real-time PCR was thus used to quantify differentiation of the CD34+ cells into brown adipocytes.
UCP1 is the key protein in brown adipocytes responsible for uncoupled respiration and is also highly specific for brown adipocyte differentiation. It is expressed exclusively by fully differentiated brown adipocytes and not by the CD34+ progenitor cells. We used a real-time semi-quantitative RT PCR-based assay for detection of UCP1 expression, in order to screen for brown adipocyte recruiters. […] The assay has the added advantage of allowing light microscopic visualization of the distinct morphological changes accompanying differentiation into brown adipocytes. This serves as further confirmation of differentiation.
(§1) Cells were seeded at 10,000 per cm^2 (48-well tissue culture, Chemglass #CLS-3500-048), cultured until confluency (1-4 days) at 37° C. in Endothelial cell growth medium-2 (EGM2) (BulletKit growth medium, Lonza #CC-3162) and until differentiation (6-12 more days). After 1-4 days in EGM2 media the cells were incubated with test agents (or positive controls) for 2-3 days (from day −3 or −2 to day 0). Rosiglitazone (1 μM) and rhBMP7 (6.3 nM) were used as reference agents (positive controls). Then (on day 0) the culture media (containing the test agents or positive controls) was removed, and minimal adipogenic medium (MDM) was added and the cells were left to differentiate of 6-12 days. The MDM media is a modification of the adipogenic media described by Rodriguez et al., and contains: DMEM/Ham's F-12 50/50 Mix (3.151 g/1, 17.5 mM D-glucose, 3.651 g/l L-glutamine) (Cellgro #10-090-CV), 5 μg/ml (0.86 μM) insulin, 1 μM dexamethasone, 100 μM 3-isobutyl-1-methylxanthine, 0.2 nM 3,3′,5-triiodo-L-thyronine, 10 μg/ml (127 nM) transferrin, and 1% penicillin-streptomycin. Adipocyte scores were determined by light microscopy and defined as the number of cells, on a per well basis, that contain multilocular lipid droplets, at the end of the differentiation of the cells, approximately 6 to 12 days following the end of compound treatment and switch into MDM media.
Total RNA was prepared from cells using PureLink RNA Isolation Kit (Invitrogen #12183-016). Alternatively, cells were simply lyzed by freezing (−80° C.). First strand cDNA were synthesized using the High Capacity cDNA Reverse Transcription kit (Applied Biosystems, Foster City, Calif.) and random primers.
Quantitative real-time PCR was performed using an Applied Biosystems StepOnePlus™ instrument, TaqMan Gene Expression Master Mix (Applied Biosystems #4369016), and custom TaqMan gene expression probes and primers for human uncoupling protein-1 “UCP1” (GenBank NM_021833) and for human peptidylprolyl isomerase A “cyclophilin A” (GenBank NM_021130).
Cyclophilin A was used as a control to account for any variations due to the efficiency of reverse transcription. Arbitrary units were determined by normalizing target mRNA levels to cyclophilin A mRNA levels (based on Cts).

CD34+ cells [2] = assay: Light microscopy of CD34+ cells for brown adipocyte differentiation (multilocular lipid-containing cells); assay type: cell-based, human; conditions: CD34+ cells 6 days following the end of compound treatment and switch into MDM media
Protocol: as §1
Pictures of cells were taken using a hand-held digital camera (Nikon Coolpix 950) and inverted microscope (Nikon TMS) used for cell culture observations; images were optimized using Paint.net version 4.0 functions for Auto-Level Brightness and Contrast.

CD34+ cells [3] = assay: Quantification of UCP1 protein by fluorescence immunohistochemistry (IHC); assay type: cell-based, human
Protocol: Culturing and differentiation of CD34+ cells into brown adipocytes were performed using adipogenic differentiation medium lacking (Minimal Differentiation Medium, MDM) or containing 1 μM rosiglitazone (Reference Differentiation Medium, RDM). After 15 days of differentiation cells were fixed with 4% Paraformaldehyde PBS pH 7.4, and incubated with a UCP1 antibody (Abcam ab23841) and Alexafluor 488 goat anti-rabbit antibody to quantify relative UCP1 levels (green) according to standard protocols. Prior to fixation of cells, nuclei were labeled with 5 μM DAPI (blue) for 10 minutes. Each treatment condition was evaluated in triplicate in a 96-well plate corresponding to approximately 360-480 cells for each data point in total. The InCell 1000 Developer Toolbox software was used to develop an automated cell detection script to measure UCP1 signal intensity, using the nuclei and cytoplasm detection algorithms. As a readout, total intensity of UCP1 signal within the cell was used, normalized to cell number.

## CC(C)(Oc1ccc(CCNC(=O)c2ccc(Cl)cc2)cc1)C(=O)O [bezafibrate, 2-(4-{2-[(4-chlorobenzoyl)amino]ethyl}phenoxy)−2-methylpropanoic acid]
DIO mice; MRI
  body fat mass: significant decreases
DIO mice
  body weight: significant decreases
  glycemia: significant decreases
  insulin resistance index (HOMA-IR): significant decreases
  plasma insulin: significant decreases
  plasma leptin: significant decreases
[1]
  differentiation of brown adipocyte progenitor cells into brown adipocytes, as indicated by expression of UCP1 and PPARγ2: promote the differentiation of brown adipocyte progenitor cells into brown adipocytes
CD34+ cells [2]
  brown adipocyte formation by light microscopy: promote brown adipocyte formation

## O=C(O)c1cc(-c2ccc(F)cc2F)ccc1O [diflunisal, Diflunisal]
CD34+ cells [3]
  agents identified by quantification of UCP1 protein by fluorescence IHC: identified using this technique
[1]
  differentiation of brown adipocyte progenitor cells into brown adipocytes, as indicated by expression of UCP1 and PPARγ2: promote the differentiation of brown adipocyte progenitor cells into brown adipocytes
CD34+ cells [2]
  brown adipocyte formation by light microscopy: promote brown adipocyte formation

## CCCN(CCC)S(=O)(=O)c1ccc(C(=O)O)cc1 [probenecid, Probenecid]
CD34+ cells [3]
  agents identified by quantification of UCP1 protein by fluorescence IHC: identified using this technique
[1]
  differentiation of brown adipocyte progenitor cells into brown adipocytes, as indicated by expression of UCP1 and PPARγ2: promote the differentiation of brown adipocyte progenitor cells into brown adipocytes
CD34+ cells [2]
  brown adipocyte formation by light microscopy: promote brown adipocyte formation

B1: BMP7: recombinant human BMP7 (rhBMP7), R&D Systems, reference agent (positive control) (protein, UniProt P18075 293-431, looked up)
Bone morphogenetic protein 7: STGSKQRSQNRSKTPKNQEALRMANVAENSSSDQRQACKKHELYVSFRDLGWQDWIIAPEGYAAYYCEGECAFPLNSYMNATNHAIVQTLVHFINPETVPKPCCAPTQLNAISVLYFDDSSNVILKKYRNMVVRACGCH
[1]; CD34+ cells, rosiglitazone 1 μM, BMP7 6 nM (most effective individual concentrations), day −3 to d0
  recruitment of brown adipocytes: robustly increase the recruitment of brown adipocytes
[1]; positive controls
  response of the UCP1/PPARγ2 RT-PCR assay to positive controls: appropriate dose-responsive behavior
CD34+ cells [2]
  brown adipocyte formation by light microscopy: promote brown adipocyte formation
